For data set [1], the system named is human peripheral lymphocytes. Kind of data set: Chromosome aberrations in human peripheral lymphocytes. The data set is classed as cell-based. As to the method: DMB was examined for the potential to induce chromosome aberrations in human peripheral lymphocytes in the presence and absence of an exogenous metabolic activation system (S9 mix). In the 3-hour cultures (without or with activation), the highest three concentrations (2450, 3500, and 5000 μg/mL) were analyzed for chromosome aberrations. In the 22-hour treatment, 288, 412 and 588 μg/ML were analyzed for chromosome aberrations. […] The aberrations in control cultures were within historical ranges. DMB was therefore considered negative for inducing structural or numerical chromosome aberrations in human peripheral lymphocytes with and without metabolic activation.

Data set [2] in a line: Immunotoxicology weight-of-evidence analysis, repeat dose rat study. The data set is classed as in vivo, Sprague Dawley rat. The text has this: The immunotoxicological potential of DMB has been evaluated by a weight-of-evidence analysis of the data generated in the repeat dose Sprague Dawley rat and Beagle dog studies. In both studies, there were no effects of treatment on WBC levels or lymph node histopathology, which are predictive of potential immunotoxicity.

The nature of data set [3]: in vivo. Also noted: species or system Beagle dogs. Particulars: Beagle, dog; for AUC(0-inf): both sexes, po. The method, then: DMB was administered orally by capsule to Beagle dogs for 26 weeks at dose levels of 0, 50, 150 and 300 mg/kg/day. Plasma levels were measured at 1 to 24 hours post-dose on Days 1 and 181. Peak plasma concentrations were measured at 1 to 4 hour postdose on Day 0, and at 1 to 8 hours postdose during Week 26. Systemic exposure increased with increasing dose level and was greater than dose-proportional on Day 0 and Week 26. […] The peak and extent of systemic exposure of Beagle dogs to DMB were similar in males and females. Systemic exposure values at Week 26 were 138 to 153% of the values at Day 0 for 50 mg/kg, 130% for 150 mg/kg, and 100 to 102% 300 mg/kg dose levels, indicating an accumulation of DMB during this time period for the 50 and 150 mg/kg dose levels and no accumulation at the 300 mg/kg dose level.
Toxicokinetic information from the 26-week rat (Table 7) and 26-week dog toxicity studies (Table 8) are compared to systemic exposure (AUC) levels determined in a clinical study.

The subject of data set [4] is fetal hemoglobin (HbF). Description: Phase 2 trial in thalassemia intermedia patients, HbF and total hemoglobin. The data set is classed as in vivo, human. The method, then:
A randomized, doubled blind, placebo-controlled, multiple ascending dose Phase I/II trial was conducted in 21 adult patients with beta thalassemia intermedia, including 14 patients with HbE/β^0 thalassemia from Thailand and 7 patients with β^+/β^0 thalassemia (including 12 different beta globin gene mutations). Study medication was taken as a single daily dose of DMB for 8 weeks followed minimally by a 4 week break and follow-up period. Four ascending dose levels (10, 20, 30, and 40 mg/kg/day) were sequentially evaluated in 4 dose level cohorts after the preceding dose and schedule were determined safe by an independent and unblinded Safety Monitoring Committee.
All treatment groups had two placebo patients; placebo patients in the first dose group were randomized to treatment in the second dose group. Ten patients in Thailand (all HbE type) were treated with 10 mg/kg (8 active/2 placebo) followed by eight patients in Thailand who were treated followed by 30 mg/kg (6 active/2 placebo). Eleven patients (4 That, 7 Lebanese) were treated with 20 mg/kg followed by 40 mg/kg (9 active [6 Lebanese/3 That]/2 placebo). Patients ranged in age from 17 to 49 with a median age of 31 and were comprised for 16 females and 5 males.
Patients were monitored every 2 weeks for laboratory studies, physical examinations, and adverse events. Further, patients were followed for hematologic parameters primarily focusing on hemoglobin and fetal hemoglobin (HbF). In addition, pharmacokinetic samples were obtained on Day 0 and 13, at pre-dose and 2, 4, 6, 8, 12, and 24 hours post-dosing. Hemoglobin was measured at each site using standard hematology equipment. HbF was measured using Varian HPLC. […] Adverse events in treated subjects included headache, upper respiratory infection, pyrexia, fatigue, nausea, and dizziness, but the rates of such events were not markedly different from those observed in the placebo-treated subjects.

Data set [5] in a line: in vivo. Details: species or system Beagle dogs. Conditions: dog. The text has this:
Completed toxicology studies conducted with DMB include a single-dose toxicity study in Sprague-Dawley rats, escalating dose toxicity study in Beagle dogs, a repeat dose study of 14-Day duration in Sprague-Dawley rats and repeat-dose toxicity studies of 28-Day duration in Sprague-Dawley rats and Beagle dogs, and 26-Week studies in Sprague-Dawley rats and Beagle dogs. […] Reproductive toxicity studies include two dose-range finding studies, one in Sprague-Dawley rats, the other in New Zealand white rabbits. DMB was administered once a day (QD) orally via gavage; doses are expressed as the sodium salt. In addition, an array of genotoxicity studies were conducted with DMB.
Based on the results of this study, the NOEL for DMB in male and female Beagle dogs was 50 mg/kg/day; and the NOAEL for DMB in male and female Beagle dogs was at least 300 mg/kg/day, the highest dose administered over the 26-Week treatment period.

Data set [6] deals with F-reticulocytes. Description: F-reticulocyte production in anemic baboons. It is filed as in vivo. As to the method: Expression of γ-globin and erythroid cell production was evaluated in a primate model in which baboons are phlebotomized on a daily basis to simulate the chronic RBC destruction associated with hemoglobinopathies. In this model, baboons, aged 2 to 3 years, had 2.5 to 7 mL/kg of blood withdrawn daily, and the volume replaced with an identical volume of normal saline. Hemoglobin levels were lowered relative to control levels, but were maintained between 6.5 to 7.5 g/dL, the level necessary for the modulation of globin genes in this animal species. The animals were supplemented with iron dextran and folic acid. The phlebotomy regimen effectively exchanged the animals' total blood volume every 10 to 20 days.
Globin chain protein synthesis was measured in DMB treated animals using ^3H-leucine-labeled reticulocytes before and 2 and 4 days after treatment. Complete blood counts and reticulocyte counts were monitored 3 times per week and plasma concentrations of the test article was determined. DMB was administered intravenously (IV, daily) or orally via nasogastric gavage under light anesthesia (on 3 alternating days per week for up to 6 weeks), on a dose-escalation schedule with starting doses of 500 to 800 mg/kg. If γ globin induction was observed, lower doses (40-200 mg/kg) were tested. Recombinant human erythropoietin (rhu-EPO) was also administered in separate treatment courses to 2 baboons at doses of 300 U/kg three times per week subcutaneously as a positive control for the erythropoietic effects of DMB. Treatments were performed in individual baboons.
In the anemic baboon model, increases in F-reticulocytes were usually observed within 2-3 days of treatment initiation and diminished within 3 to 5 days of treatment cessation.

Each structure is given as a SMILES string. Some results are limits rather than exact numbers.

A word on the AUC(0-inf): it is the area under the concentration-time curve extrapolated to infinity. Read a low AUC(0-inf) as less exposure. Usually NOAEL stands for the highest tested level that showed no adverse finding. In the case of `CCC(C)(C)C(=O)[O-].[Na+]` [DMB, Sodium 2,2-dimethylbutyrate], the “numerical aberrations (polyploidy or endoreduplication)” value in data set [1] is “No test article-related increase”. Besides, the “structural chromosome aberrations compared to vehicle-treated cultures” value in data set [1] (3 h ± S9 up to 5000 μg/mL, 22 h up to 588 μg/mL) is recorded as “no test article-related increases”. Further, the “induction of structural or numerical chromosome aberrations” value in data set [1] (with and without metabolic activation) is “negative”. Moreover, the “effects on WBC levels or lymph node histopathology” value in data set [2] is “no effects”. The figures for the area under the curve AUC(0-inf) in data set [3] (50 mg/kg), in data set [3] (150 mg/kg) and in data set [3] (300 mg/kg) were 127 µg·h/mL, 473 µg·h/mL and 1470 µg·h/mL, respectively. In addition, the “increase in exposure values for a 6-fold increase in dose (50 to 300 mg/kg/day)” value is recorded as 10.31 fold in data set [3] (female); 7.58 fold in data set [3] (female, 26 weeks); 12.85 fold in data set [3] (male); 8.35 fold in data set [3] (male, 26 weeks). In addition, in data set [4] (20 mg/kg group), the “patients in whom total hemoglobin increased” value was 2 out of 9. Further, in data set [4] (Day 55), the “dose level with the largest increase in HbF” value worked out at 20 mg/kg. Also, in data set [4] (all 4 DMB dose groups, compared to minimal change in placebo), the “change in HbF at Day 55” value is reported as “median increases”. Moreover, the “Median change from baseline to Day 55 in total hemoglobin” value in data set [4] (all groups including placebo) is on record as “decreases”. Moreover, in data set [5] (both sexes, Beagle), the NOAEL at 26 weeks was ≥ 300 mg/kg/day. Also, the NOEL in data set [5] (both, Beagle, 26 weeks) amounted to 50 mg/kg/day. The adverse effects result in data set [5] is recorded as “no adverse effects”. Further, the clinical observations result in data set [5] is “no important treatment-related clinical observations”. The “effects on ECG measurements” value in data set [5] is “No biologically significant effects”. The “F-reticulocytes Mean Fold Increase” value in data set [6] (150 mg/kg/day, IV, 5 days) is 5; in data set [6] (200 mg/kg/day, IV, 5 days/wk), 15; in data set [6] (500 mg/kg/2nd day, Oral, 5 days/wk, 2 wks), 3.8; in data set [6] (500-700 mg/kg/2nd day, Oral) it was 3.8.

(Values after patent US8618068B2, “Methods and low dose regimens for treating red blood cell disorders” (priority 2009, dated 2013).)
